The results in this text go back to US12528838B2, “Cyclic dominant negative competence stimulating peptide analogs and methods of treating Streptococcus pneumoniae infections” (priority 2019, dated 2026).

Bridge positions count the residues as written; N and C are the ends. Square brackets hold non-standard residues; d marks the D form. Peptide text beside a SMILES is read from it. Dap = NC[C@H](N)C(=O)O Bounds are passed on as bounds.

A short description of series [1]: Stability in mouse lungs (BAL fluid analysed by HPLC after intratracheal instillation). Type of series: in vivo, CD1 mice. Conditions: both sexes, CD1, cell-free bronchoalveolar lavage fluid (BALF), inhaled or intranasal, 400 ug, 400 μg intratracheally, FIG. 14B. Here is the method:
(§1) FIGS. 14A-14D. Pharmacological properties of dnCSPs. (FIG. 14A) CSPs were treated with trypsin/chymotrypsin and their degradation monitored by HPLC. (FIG. 14B) CD1 mice (3/cohort, males & females) were intratracheally instilled 400 μg of native or dnCSPs. Mice were bronchial alveolar lavaged (BAL) at indicated times, and cell free BAL fluid (BALF) were analyzed by HPLC. […] (FIGS. 14C-14D) CD1 mice (5/cohorts, males & females) were intratracheally inoculated with MTD doses of native and dnCSPs (200 μg-20 mg/kg). […] Lung sections (FIGS. 14C-14D) and other organs were H&E stained. b=bronchioles; v=vessels.

A short description of series [2]: Proteolytic stability in trypsin/chymotrypsin solution, monitored by RP-HPLC. Type of series: in vitro ADME. Here is the method: FIG. 4E. […] All peptides were treated with trypsin/chymotrypsin (0.05 μg mL-1 enzyme concentration). RP-HPLC was used to monitor the progress of degradation. All peptides have a half-life about 3 hours. After 3 to 4 hours, some degradation product of CSP1-cyc-E1A(Dap6E10) start to precipitate out, resulting in the plateau in the curve.
as §1
The proteolytic stability of CSP1-E1A-cyc(Dap6E10) in Trypsin and Chymotrypsin solution was tested and the half-life measured. […] To test that, CSP1-E1A-des-K16K17-cyc(Dap6E10) was manually synthesized and evaluated its activity.
Pharmacological evaluation of lead cyclic dnCSPs. Before moving the most promising dnCSPs into mouse models, their pharmacological properties will be evaluated. As these are peptide-based drugs, first assessed are their metabolic stability. These assays will include prolonged incubation in physiologically-relevant buffers with varying pH values, stability towards degradation by trypsin and chymotrypsin, and stability in mouse lungs, plasma and serum to simulate in vivo proteolytic environments. Degradation of dnCSPs will be quantified using HPLC. […] The MTD will be defined as the maximum dose that causes a 15% loss of initial weight. […] Systemic toxicity will be assessed by performing blood chemistry and complete blood count (CBC) with differential. Major organs (e.g., liver, kidney, heart, lung, etc.) and sternum (to test genotoxicity) will be collected for histopathological and toxicological analysis. […]

The target in series [3] is ComD2 receptor (Streptococcus pneumoniae serotype 4, UniProt A0A0H2US84). In words: cell-based. Type of series: cell-based. An excerpt: Biological evaluation of cyclic dnCSPs. […] All assays will be performed in triplicates and independently three times. Serial dilutions of dnCSPs will be conducted to determine the EC50 and IC50 values of promising dnCSPs through initial screening. Data from reporter assays will be analyzed using the GraphPad Prism software. The lead dnCSPs will be assessed for their therapeutic potential using multiple in vitro assays, including attenuation of ComX-induction (reporter systems), genetic transformation, allolysis (zymogram assays), and release of PLY (hemolysis & Western blots). Lastly, the pneumococcal competence system regulates biofilm formation, which is important for the pathogenesis of […]. The ability of the dnCSPs to inhibit biofilm formation will be evaluated after 24 hr of growth on 1% BSA coated coverslips placed in flat-bottom polystyrene tissue culture plates by staining with FilmTracer LIVE/DEAD Biofilm viability kit (Invitrogen, L10316), and visualized using a confocal microscope and Z-stacked to construct 3D-images.
Sequence of ComD2 receptor (A0A0H2US84 entry or part of it): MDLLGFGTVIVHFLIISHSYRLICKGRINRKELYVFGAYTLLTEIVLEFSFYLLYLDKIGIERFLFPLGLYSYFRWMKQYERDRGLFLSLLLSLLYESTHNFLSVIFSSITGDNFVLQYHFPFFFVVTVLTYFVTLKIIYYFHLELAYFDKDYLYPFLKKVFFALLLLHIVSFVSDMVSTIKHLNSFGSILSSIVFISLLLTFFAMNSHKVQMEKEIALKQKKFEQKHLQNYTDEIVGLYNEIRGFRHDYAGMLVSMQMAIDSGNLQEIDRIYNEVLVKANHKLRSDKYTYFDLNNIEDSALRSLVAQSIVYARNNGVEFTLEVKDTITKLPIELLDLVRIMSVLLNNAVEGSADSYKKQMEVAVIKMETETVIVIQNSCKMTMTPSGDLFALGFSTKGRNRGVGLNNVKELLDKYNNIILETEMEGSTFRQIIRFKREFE

In series [4] the target is ComD1 receptor (Streptococcus pneumoniae serotype 2, UniProt A0A0H2ZM50). In words: cell-based. Type of series: cell-based. An excerpt:
Biological evaluation of cyclic dnCSPs. The cyclic dnCSPs will be assessed for inhibition of competence induction using the β-gal, lux (FIG. 11) or luc (FIG. 15) reporter systems we have optimized for the analysis of a large number of signal variants in 96-well plates. All assays will be performed in triplicates and independently three times. Serial dilutions of dnCSPs will be conducted to determine the EC50 and IC50 values of promising dnCSPs through initial screening. Data from reporter assays will be analyzed using the GraphPad Prism software. The lead dnCSPs will be assessed for their therapeutic potential using multiple in vitro assays, including attenuation of ComX-induction (reporter systems), genetic transformation, allolysis (zymogram assays), and release of PLY (hemolysis & Western blots). Lastly, the pneumococcal competence system regulates biofilm formation, which is important for the pathogenesis of […]. The ability of the dnCSPs to inhibit biofilm formation will be evaluated after 24 hr of growth on 1% BSA coated coverslips placed in flat-bottom polystyrene tissue culture plates by staining with FilmTracer LIVE/DEAD Biofilm viability kit (Invitrogen, L10316), and visualized using a confocal microscope and Z-stacked to construct 3D-images.

Setting [5] is: in vitro, FIG. 14A, read-out: half-life (converted).

Sequence of ComD1 receptor (A0A0H2ZM50 entry or part of it): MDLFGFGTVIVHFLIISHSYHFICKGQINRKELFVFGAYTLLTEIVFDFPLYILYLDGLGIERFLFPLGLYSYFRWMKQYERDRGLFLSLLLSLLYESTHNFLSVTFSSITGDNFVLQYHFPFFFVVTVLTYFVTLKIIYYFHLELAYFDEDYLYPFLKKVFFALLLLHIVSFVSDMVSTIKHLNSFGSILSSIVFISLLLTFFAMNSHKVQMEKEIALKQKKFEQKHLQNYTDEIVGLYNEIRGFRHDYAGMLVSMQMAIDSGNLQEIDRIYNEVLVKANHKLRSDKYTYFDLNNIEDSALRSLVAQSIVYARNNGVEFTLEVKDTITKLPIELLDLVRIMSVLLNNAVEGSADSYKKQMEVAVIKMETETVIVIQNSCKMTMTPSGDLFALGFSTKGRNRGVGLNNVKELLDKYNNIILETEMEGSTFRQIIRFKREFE

For `CC[C@H](C)[C@H](NC(=O)[C@H](CCCNC(=N)N)NC(=O)[C@H](CCSC)NC(=O)[C@@H](N)CCC(=O)O)C(=O)N[C@@H](CO)C(=O)N[C@@H](CCCNC(=N)N)C(=O)N[C@H](C(=O)N[C@H](C(=O)N[C@@H](CC(C)C)C(=O)N[C@H](CC(=O)O)C(=O)N[C@@H](Cc1ccccc1)C(=O)N[C@@H](CC(C)C)C(=O)N[C@@H](Cc1ccccc1)C(=O)N[C@@H](CC(C)C)C(=O)N[C@@H](CCCNC(=N)N)C(=O)N[C@@H](CCCCN)C(=O)N[C@@H](CCCCN)C(=O)O)[C@@H](C)CC)[C@@H](C)CC` [CSP2-d10, E-M-R-I-S-R-I-I-L-d-F-L-F-L-R-K-K] (H-EMRISRIIL[dD]FLFLRKK-OH; N-terminus and C-terminus assumed), the half-life in series [1] was 2.5 h.
Regarding `CC[C@H](C)[C@H](NC(=O)[C@H](Cc1ccccc1)NC(=O)[C@H](CC(=O)O)NC(=O)[C@H](CCCNC(=N)N)NC(=O)[C@H](Cc1ccccc1)NC(=O)[C@H](Cc1ccccc1)NC(=O)[C@H](CCCCN)NC(=O)[C@H](CO)NC(=O)[C@H](CC(C)C)NC(=O)[C@H](CCCNC(=N)N)NC(=O)[C@H](CCSC)NC(=O)[C@H](C)N)C(=O)N[C@@H](CC(C)C)C(=O)N[C@@H](CCC(N)=O)C(=O)N[C@@H](CCCNC(=N)N)C(=O)N[C@@H](CCCCN)C(=O)N[C@@H](CCCCN)C(=O)O` [CSP1-E1A, A-M-R-L-S-K-F-F-R-D-F-I-L-Q-R-K-K], the half-life in series [1] and in series [2] (setting [5]) was 1.5 h each time. The compound further returned a concentration for half-maximal inhibition (IC50) in series [3] of more than 10000 nM.
As to `CC[C@H](C)[C@H](NC(=O)[C@H](Cc1ccccc1)NC(=O)[C@@H]1CCC(=O)NC[C@H](NC(=O)[C@H](CO)NC(=O)[C@H](CC(C)C)NC(=O)[C@H](CCCNC(=N)N)NC(=O)[C@H](CCSC)NC(=O)[C@H](C)N)C(=O)N[C@@H](Cc2ccccc2)C(=O)N[C@@H](Cc2ccccc2)C(=O)N[C@@H](CCCNC(=N)N)C(=O)N1)C(=O)N[C@@H](CC(C)C)C(=O)N[C@@H](CCC(N)=O)C(=O)N[C@@H](CCCNC(=N)N)C(=O)N[C@@H](CCCCN)C(=O)N[C@@H](CCCCN)C(=O)O` [CSP1-E1A-cyc(Dap6E10), A-M-R-L-S-(Dap-F-F-R-E)-F-I-L-Q-R-K-K] (H-AMRLS[Dap]FFREFILQRKK-OH; lactam 6-10; N-terminus and C-terminus assumed), the IC50 in series [4] came out at 75.8 nM; in series [3], 182 nM. The half-life in series [2] (counting active degradation product CSP1-E1A-des-K16K17-cyc(Dap6E10), read-out: effective half-life) was more than 4 h.
Take `CC[C@H](C)[C@H](NC(=O)[C@H](Cc1ccccc1)NC(=O)[C@H](CC(=O)O)NC(=O)[C@H](CCCNC(=N)N)NC(=O)[C@H](Cc1ccccc1)NC(=O)[C@H](Cc1ccccc1)NC(=O)[C@H](CCCCN)NC(=O)[C@H](CO)NC(=O)[C@H](CC(C)C)NC(=O)[C@H](CCCNC(=N)N)NC(=O)[C@H](CCSC)NC(=O)[C@@H](N)CCC(=O)O)C(=O)N[C@@H](CC(C)C)C(=O)N[C@@H](CCC(N)=O)C(=O)N[C@@H](CCCNC(=N)N)C(=O)N[C@@H](CCCCN)C(=O)N[C@@H](CCCCN)C(=O)O` [CSP1, reference compound]: in series [1], the half-life is 1.5 h.
On to `CC[C@H](C)[C@@H]1NC(=O)[C@H](Cc2ccccc2)NC(=O)[C@H](CC(=O)O)NC(=O)[C@H](CCCNC(=N)N)NC(=O)[C@H](Cc2ccccc2)NC(=O)[C@H](Cc2ccccc2)NC(=O)[C@@H](NC(=O)[C@H](CO)NC(=O)[C@H](CC(C)C)NC(=O)[C@H](CCCNC(=N)N)NC(=O)[C@H](CCSC)NC(=O)[C@@H](N)CCC(=O)O)CCCCNC(=O)C[C@@H](C(=O)N[C@@H](CCCNC(=N)N)C(=O)N[C@@H](CCCCN)C(=O)N[C@@H](CCCCN)C(=O)O)NC(=O)[C@H](CC(C)C)NC1=O` [CSP1-cyc(K6D14)] (H-EMRLSKFFRDFILDRKK-OH; lactam 6-14; N-terminus and C-terminus assumed), for which the EC50 in series [4] and in series [3] was more than 1000 nM in each case.
As for `CC[C@H](C)[C@H](NC(=O)[C@H](CCCNC(=N)N)NC(=O)[C@H](CCSC)NC(=O)[C@H](C)N)C(=O)N[C@@H](CO)C(=O)N[C@@H](CCCNC(=N)N)C(=O)N[C@H](C(=O)N[C@H](C(=O)N[C@@H](CC(C)C)C(=O)N[C@H](CC(=O)O)C(=O)N[C@@H](Cc1ccccc1)C(=O)N[C@@H](CC(C)C)C(=O)N[C@@H](Cc1ccccc1)C(=O)N[C@@H](CC(C)C)C(=O)N[C@@H](CCCNC(=N)N)C(=O)N[C@@H](CCCCN)C(=O)N[C@@H](CCCCN)C(=O)O)[C@@H](C)CC)[C@@H](C)CC` [CSP2-E1Ad10, A-M-R-I-S-R-I-I-L-d-F-L-F-L-R-K-K] (H-AMRISRIIL[dD]FLFLRKK-OH; N-terminus and C-terminus assumed), the half-life in series [1] and in series [2] (setting [5]) was more than 3 h in each case.

As a reminder, the half-life is the time needed for the level to fall by half in the phase considered. The IC50 is the concentration at which inhibition is half-maximal. What is called EC50 is the concentration needed to bring the measured effect to its halfway point.
